Patent publication US7928135B2, “Benzene, pyridine, and pyridazine derivatives” (Serenex, Inc., priority 2005, dated 2011)
pIC50: −log10 of the molar value.

Tests used:
PC-3 cell proliferation = assay: Cell proliferation assay (WST-1), PC-3; format: cell-based; details: Homo sapiens; PC-3 cells, WST-1 readout; read-out: inhibitory activity against PC-3 cell proliferation (IC50 range)
Method: A panel of cancer cell lines was obtained from the DCTP Tumor Repository, National Cancer Institute (Frederick, Md.) or ATCC (Rockville, Md.). Cell cultures were maintained in Hyclone RPMI 1640 medium (Logan, Utah) supplemented with 10% fetal bovine serum and 20 mM HEPES buffer, final pH 7.2, at 37° C. with a 5% CO2 atmosphere. Cultures were maintained at sub-confluent densities. Human umbilical vein endothelial cells (HUVEC) were purchased from Clonetics, a division of Cambrex (Walkersville, Md.). Cultures were established from cryopreserved stocks using Clonetics EGM-2 medium supplemented with 20 mM HEPES, final pH 7.2, at 37° C. with a 5% CO2 atmosphere.
For proliferation assays, cells were seeded with the appropriate medium into 96 well plates at 1,000-2,500 cells per well, depending on the cell line, and were incubated overnight. The following day, test compound, DMSO solution (negative control), or Actinomycin D (positive control) was added to the appropriate wells as 10× concentrated stocks prepared in phosphate buffered saline. The cell plates were then incubated for an additional 2-5 days, depending on the cell line, to allow proliferation to occur. To measure cell density, 50 μL of WST-1 solution (Roche Applied Science, Ind.) diluted 1:5 in phosphate buffered saline was added to each well, and the cells incubated for an additional 1-5 hrs., again depending on the cell line. Optical density was determined for each well at […] using a Tecan GeniosPro plate reader (RTP, NC). The percentage of cell growth was determined by comparing the cell growth in the presence of test compounds to the cells treated with DMSO vehicle (control, 100% growth) and cells treated with Actinomycin D (10 μM, 0% growth). […]

[1] = tested on: HSP-90 (heat shock protein 90); assay: Determination of affinity for HSP-90 (elution from purine affinity column, SDS-PAGE densitometry); format: binding; parameters: key: +++: very high; ++: high; +: moderate; details: elution of HSP-90 from purine affinity column with 20, 100 and 500 μM test compound
Method: Affinity of test compounds for HSP-90 was determined as follows: Protein mixtures obtained from a variety of organ tissues (for example: spleen, liver and lung) were reversibly bound to a purine affinity column to capture purine-binding proteins, especially HSP-90. The purine affinity column was washed several times, and then eluted with 20 μM, 100 μM, and 500 μM of test compound. Compounds of Formula I elute HP-90 in a dose-dependent manner vs. a control elution using dimethylsulfoxide. The elution profile of Formula I compounds was determined by 1-dimensional SDS polyacrylamide gel electrophoresis. Gels were stained with a fluorescent stain such as sypro ruby (a highly sensitive fluorescent protein stain that can readily detect less than 1 fmol of total protein, i.e., less than 0.04 ng for a 40 kDa protein) or silver nitrate. The gels were imaged using a standard flat bed gel imager and the amount of protein estimated by densitometry. The percent of HSP-90 protein eluted from the column at each concentration was determined and IC50 values were calculated from these estimates. The identity of a band containing HSP-90 was determined by protein sequencing using mass spectroscopy.
Compounds of the invention are inhibitors of HSP-90 (heat shock protein 90). Several exemplary compounds useful in the methods of the invention are listed below.

pIC50 (PC-3 cell proliferation)	relative binding affinity to HSP-90 [1]	Compound
5.30 to 6.30	+++	COc1cc(Nc2cc(-n3c(C)cc4c3CC(C)(C)CC4=O)ccc2C(N)=O)cc(OC)c1OC [Compound 76, 2-[(3,4,5-trimethoxyphenyl)amino]-4-(2,6,6-trimethyl-4-oxo-4,5,6,7-tetrahydro-1H-indol-1-yl)benzamide]
4.30 to 5.30	++	Cc1cc2c(n1-c1ccc(C(N)=O)c(-c3ccncc3)c1)CC(C)(C)CC2=O [Compound 77, 2-pyridin-4-yl-4-(2,6,6-trimethyl-4-oxo-4,5,6,7-tetrahydro-1H-indol-1-yl)benzamide]
4.30 to 5.30	++	Cc1cc2c(n1-c1ccc(C(N)=O)c(NN3CCOCC3)c1)CC(C)(C)CC2=O [Compound 94, 2-(morpholin-4-ylamino)-4-(2,6,6-trimethyl-4-oxo-4,5,6,7-tetrahydro-1H-indol-1-yl)benzamide]
> 6.30	+++	CC(=O)Nc1cc(-n2cc(C)c3c2CC(C)(C)CC3=O)ccc1C(N)=O [Compound 98, 2-(acetylamino)-4-(3,6,6-trimethyl-4-oxo-4,5,6,7-tetrahydro-1H-indol-1-yl)benzamide]
4.30 to 5.30	++	Cc1cn(-c2ccc(C(N)=O)c(N3CCN(C)CC3)c2)c2c1C(=O)CC(C)(C)C2 [Compound 99, 2-(4-methylpiperazin-1-yl)-4-(3,6,6-trimethyl-4-oxo-4,5,6,7-tetrahydro-1H-indol-1-yl)benzamide]
4.30 to 5.30	++	CCc1cc(-n2nc(C)c3c2CC(C)(C)CC3=O)ccc1C(N)=O [Compound 102, 2-ethyl-4-(3,6,6-trimethyl-4-oxo-4,5,6,7-tetrahydro-1H-indazol-1-yl)benzamide]
5.30 to 6.30	++	CCCCSc1cc(-n2nc(C)c3c2CC(C)(C)CC3=O)ccc1C(N)=O [Compound 103, 2-(butylthio)-4-(3,6,6-trimethyl-4-oxo-4,5,6,7-tetrahydro-1H-indazol-1-yl)benzamide]
4.30 to 5.30	++	Cc1cn(-c2ccc(C(N)=O)c(Sc3ccncc3)c2)c2c1C(=O)CC(C)(C)C2 [Compound 105, 2-(pyridin-4-ylthio)-4-(3,6,6-trimethyl-4-oxo-4,5,6,7-tetrahydro-1H-indol-1-yl)benzamide]
> 6.30	+++	Cc1nn(-c2ccc(C(N)=O)c(NC3CCC3)c2)c2c1C(=O)CC(C)(C)C2 [Compound 117, 2-(cyclobutylamino)-4-(3,6,6-trimethyl-4-oxo-4,5,6,7-tetrahydro-1H-indazol-1-yl)benzamide]
5.30 to 6.30	+++	Cc1nn(-c2ccc(C(N)=O)c(NC(CCO)CCO)c2)c2c1C(=O)CC(C)(C)C2 [Compound 121, 2-{[3-hydroxy-1-(2-hydroxyethyl)propyl]amino}-4-(3,6,6-trimethyl-4-oxo-4,5,6,7-tetrahydro-1H-indazol-1-yl)benzamide]
4.30 to 5.30	++	CC1(C)CC(=O)c2c(C(F)(F)F)nn(-c3ccc(C(N)=O)c(NCCNS(C)(=O)=O)c3)c2C1 [Compound 133, 4-[6,6-dimethyl-4-oxo-3-(trifluoromethyl)-4,5,6,7-tetrahydro-1H-indazol-1-yl]-2-({2-[(methylsulfonyl)amino]ethyl}amino)benzamide]
